# Data published in publication PMC10141580, “Cyclic Dichalcogenides Extend the Reach of Bioreductive Prodrugs to Harness Thiol/Disulfide Oxidoreductases: Applications to seco-Duocarmycins Targeting the Thioredoxin System” (ACS Central Science, 2023).
# Where “and” joins values, the source holds several entries; their conditions need not be identical. Equal values may be shown once. Read-outs that look alike come from different tables or passages of the source.
# Tested on: panel of 140 standard cancer cell lines
# Test: ProliFiler-140 cancer cell line screen (CellTiterGlo, 72 h)
# Format: cell-based
# Description: Incubations were performed for 72 h before automated viability readout with CellTiterGlo (Figure 8).
# End of Figure S11 (part 5 of 5): ProliFiler-140 cancer cell line screening for cytotoxicity of the prodrugs.
# 8-data-point dose response curves from CellTiter-Glo® viability readout.
# ProliFiler-140 cell line panel part V
smiles,measurement,setting,value
COc1cc2cc(C(=O)N3C[C@@H](CCl)c4c3cc(OC(=O)N3CCN(C(=O)CCC(=O)N5CCN(C)CC5)[C@H]5CSSC[C@H]53)c3ccccc43)[nH]c2c(OC)c1OC [P-SS66C-CBI-TMI],Reductive Activation Index,786-O (Kidney),4.12
same,Reductive Activation Index,A172 (Brain),5.35
same,Reductive Activation Index,A375 (Skin),3.01
same,Reductive Activation Index,A427 (Lung),19 and 18.60
same,Reductive Activation Index,A498 (Kidney),3.19
same,Reductive Activation Index,A549 (Lung),25
same,Reductive Activation Index,AsPC-1 (Pancreas),8.2
same,Reductive Activation Index,BEN (Lung),27
same,Reductive Activation Index,BT-20 (Breast),9.1
same,IC50,"COV434, read-out: IC50 [M] (ProliFiler-140), COV434 (Ovary)",1.5e-08 M
same,Reductive Activation Index,Caki-1 (Kidney),5.18
same,Reductive Activation Index,Caki-2 (Kidney),5.62 and 5.6
same,Reductive Activation Index,Calu-6 (Lung),5.77
same,Reductive Activation Index,Colo 205 (Colon),8.8
same,Reductive Activation Index,DLD-1 (Colon),6.33 and 6.3
same,Reductive Activation Index,EFM-19 (Breast),3.1 and 3.08
same,Reductive Activation Index,EFM-192A (Breast),6.6
same,IC50,"EFM-192A, read-out: IC50 [M] (ProliFiler-140), EFM-192A (Breast)",2.7e-07 M
same,Reductive Activation Index,EFO-27 (Ovary),15
same,Reductive Activation Index,H4 (Brain),5.82
same,Reductive Activation Index,H460 (Lung),9.3
same,Reductive Activation Index,HCC202 (Breast),9.8
same,IC50,"HCC202, read-out: IC50 [M] (ProliFiler-140), HCC202 (Breast)",9.1e-08 M
same,Reductive Activation Index,HCC827 (Lung),15
same,Reductive Activation Index,HCC 1569 (Breast),28
same,Reductive Activation Index,HCT-15 (Colon),3.89
same,Reductive Activation Index,HEC-1-A (Endometrium),18
same,Reductive Activation Index,HEC-1-B (Endometrium),8.3
same,Reductive Activation Index,HT-29 (Colon),9.5
same,Reductive Activation Index,HeLa (Ovary),23.88
same,Reductive Activation Index,Hep3B2.1-7 (Liver),7.8
same,IC50,"Homo sapiens, 786-0, read-out: IC50 [M] (ProliFiler-140), 786-O (Kidney)",2.86e-08 M
same,IC50,"Homo sapiens, A 172, read-out: IC50 [M] (ProliFiler-140), A172 (Brain)",1.07e-07 M
same,IC50,"Homo sapiens, A498, read-out: IC50 [M] (ProliFiler-140), A498 (Kidney)",9.41e-08 M
same,IC50,"Homo sapiens, A549, read-out: IC50 [M] (ProliFiler-140), A549 (Lung)",3e-08 M
same,IC50,"Homo sapiens, A2058, read-out: IC50 [M] (ProliFiler-140), A2058 (Skin)",1.1e-08 M
same,IC50,"Homo sapiens, A2780, read-out: IC50 [M] (ProliFiler-140), A2780 (Ovary)",8.1e-09 M
same,IC50,"Homo sapiens, A-375, read-out: IC50 [M] (ProliFiler-140), A375 (Skin)",5.45e-08 M
same,IC50,"Homo sapiens, A-427, read-out: IC50 [M] (ProliFiler-140), A427 (Lung)",4.4e-08 M
same,IC50,"Homo sapiens, A-431, read-out: IC50 [M] (ProliFiler-140), A431 (Skin)",2.02e-08 M
same,IC50,"Homo sapiens, ASPC1, read-out: IC50 [M] (ProliFiler-140), AsPC-1 (Pancreas)",2.6e-07 M
same,IC50,"Homo sapiens, BT-20, read-out: IC50 [M] (ProliFiler-140), BT-20 (Breast)",1.2e-07 M
same,IC50,"Homo sapiens, BXPC-3, read-out: IC50 [M] (ProliFiler-140), BxPC-3 (Pancreas)",4.64e-08 M
same,IC50,"Homo sapiens, CAKI-1, Caki-1",6.3e-08 M
same,IC50,"Homo sapiens, CAKI-1, read-out: IC50 [M] (ProliFiler-140), Caki-1 (Kidney)",6.34e-08 M
same,IC50,"Homo sapiens, CAKI-2, read-out: IC50 [M] (ProliFiler-140), Caki-2 (Kidney)",2.69e-07 M
same,IC50,"Homo sapiens, COLO 205, Colo 205",8.6e-08 M
same,IC50,"Homo sapiens, COLO 205, read-out: IC50 [M] (ProliFiler-140), Colo 205 (Colon)",8.6e-08 M
same,IC50,"Homo sapiens, COR-L279, read-out: IC50 [M] (ProliFiler-140), COR-L279 (Lung)",7.2e-09 M
same,IC50,"Homo sapiens, Calu-6, read-out: IC50 [M] (ProliFiler-140), Calu-6 (Lung)",5.93e-08 M
same,IC50,"Homo sapiens, DLD-1, read-out: IC50 [M] (ProliFiler-140), DLD-1 (Colon)",1.25e-07 M
same,IC50,"Homo sapiens, DU-145, read-out: IC50 [M] (ProliFiler-140), DU-145 (Prostate)",1.6e-08 M
same,IC50,"Homo sapiens, DV-90, read-out: IC50 [M] (ProliFiler-140), DV90 (Lung)",1.2e-08 M
same,IC50,"Homo sapiens, Detroit 562, read-out: IC50 [M] (ProliFiler-140), Detroit562 (Head/Neck)",1.88e-08 M
same,IC50,"Homo sapiens, EFM-19, read-out: IC50 [M] (ProliFiler-140), EFM-19 (Breast)",3.1e-07 M
same,IC50,"Homo sapiens, EFO-27, read-out: IC50 [M] (ProliFiler-140), EFO-27 (Ovary)",6.2e-08 M
same,IC50,"Homo sapiens, EPLC-272H, read-out: IC50 [M] (ProliFiler-140), EPLC-272H (Lung)",4.57e-08 M
same,IC50,"Homo sapiens, HCC38, read-out: IC50 [M] (ProliFiler-140), HCC38 (Breast)",1.35e-08 M
same,IC50,"Homo sapiens, HCC827, read-out: IC50 [M] (ProliFiler-140), HCC827 (Lung)",9.1e-08 M
same,IC50,"Homo sapiens, HCC1569, read-out: IC50 [M] (ProliFiler-140), HCC 1569 (Breast)",3.6e-08 M
same,IC50,"Homo sapiens, HCT-15, HCT-15",1.4e-07 M
same,IC50,"Homo sapiens, HCT-15, read-out: IC50 [M] (ProliFiler-140), HCT-15 (Colon)",1.4e-07 M
same,IC50,"Homo sapiens, HCT-116, HCT116",3.2e-08 M
same,IC50,"Homo sapiens, HCT-116, read-out: IC50 [M] (ProliFiler-140), HCT116 (Colon)",3.23e-08 M
same,IC50,"Homo sapiens, HEC-1-A, read-out: IC50 [M] (ProliFiler-140), HEC-1-A (Endometrium)",1e-07 M
same,IC50,"Homo sapiens, HEC-1B, read-out: IC50 [M] (ProliFiler-140), HEC-1-B (Endometrium)",4e-07 M
same,IC50,"Homo sapiens, HL-60, HL-60",1.5e-08 M
same,IC50,"Homo sapiens, HL-60, read-out: IC50 [M] (ProliFiler-140), HL-60 (Blood)",1.5e-08 M
same,IC50,"Homo sapiens, HT-29, HT-29",1.1e-07 M
same,IC50,"Homo sapiens, HT-29, read-out: IC50 [M] (ProliFiler-140), HT-29 (Colon)",1.1e-07 M
same,IC50,"Homo sapiens, HT-1080, read-out: IC50 [M] (ProliFiler-140), HT-1080 (Fibrosarcoma)",2.13e-08 M
same,IC50,"Homo sapiens, HeLa, read-out: IC50 [M] (ProliFiler-140), HeLa (Ovary)",9.89e-09 M
same,IC50,"Homo sapiens, Hs746T, read-out: IC50 [M] (ProliFiler-140), Hs 746T (Stomach)",7.5e-08 M
same,IC50,"Homo sapiens, HuTu80, read-out: IC50 [M] (ProliFiler-140), Hutu 80 (Duodenum)",9.56e-09 M
same,IC50,"Homo sapiens, Huh-7, read-out: IC50 [M] (ProliFiler-140), HuH7 (Liver)",1e-07 M
same,IC50,"Homo sapiens, Ishikawa, read-out: IC50 [M] (ProliFiler-140), Ishikawa (Endometrium)",3.8e-09 M
same,IC50,"Homo sapiens, JIMT-1, read-out: IC50 [M] (ProliFiler-140), JIMT-1 (Breast)",1e-07 M
same,IC50,"Homo sapiens, JVM-3, read-out: IC50 [M] (ProliFiler-140), JVM-3 (Blood)",3.36e-09 M
same,IC50,"Homo sapiens, Jurkat, read-out: IC50 [M] (ProliFiler-140), Jurkat (Blood)",6.17e-09 M
same,IC50,"Homo sapiens, K562, read-out: IC50 [M] (ProliFiler-140), K562 (Blood)",1.3e-07 M
same,IC50,"Homo sapiens, KARPAS-299, KARPAS 299 (Blood), read-out: IC50 [M] (ProliFiler-140)",1.08e-07 M
same,IC50,"Homo sapiens, KATO III, read-out: IC50 [M] (ProliFiler-140), Kato III (Stomach)",2.2e-07 M
